Data from the supplement of paper PMC10307832.

Experiments:
Test in all cases: relative viability (nuclei count vs DMSO), 5 days (fraction); higher = more cells survive
[1] = compound: C1=CC2=NC=CN=C2C=C1/C=C/3\C(=O)NC(=O)S3 + CC(=O)c1c(C)c2cnc(Nc3ccc(N4CCNCC4)cn3)nc2n(C2CCCC2)c1=O [Palbociclib] (partner 0.5 µM)
Summary of the method: (§1)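 Relative viability is defined as nuclei in treated wells over nuclei in vehicle wells. Duplicate plates were run and medians reported. Lung cancer cell lines in 1536-well plates were dosed by pin tool one day after seeding, with one drug or with a fixed anchor-drug dose plus five library-drug doses (not always all listed) in √10 steps, and nuclei were counted after 5 days.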

BGJ398 + Palbociclib = compound: CCN1CCN(c2ccc(Nc3cc(N(C)C(=O)Nc4c(Cl)c(OC)cc(OC)c4Cl)ncn3)cc2)CC1 [BGJ398] + CC(=O)c1c(C)c2cnc(Nc3ccc(N4CCNCC4)cn3)nc2n(C2CCCC2)c1=O [Palbociclib] (partner 0.5 µM)
Summary of the method: as §1

BGJ398 + Pictilisib = compound: CCN1CCN(c2ccc(Nc3cc(N(C)C(=O)Nc4c(Cl)c(OC)cc(OC)c4Cl)ncn3)cc2)CC1 [BGJ398] + CS(=O)(=O)N1CCN(Cc2cc3nc(-c4cccc5[nH]ncc45)nc(N4CCOCC4)c3s2)CC1 [Pictilisib] (partner 1 µM)
Summary of the method: as §1

BGJ398 + Olaparib = compound: CCN1CCN(c2ccc(Nc3cc(N(C)C(=O)Nc4c(Cl)c(OC)cc(OC)c4Cl)ncn3)cc2)CC1 [BGJ398] + O=C(c1cc(Cc2n[nH]c(=O)c3ccccc23)ccc1F)N1CCN(C(=O)C2CC2)CC1 [Olaparib] (partner 8 µM)
Summary of the method: as §1

Cell Line	relative viability ([1]; first compound 0.02 µM)	relative viability ([1]; first compound 0.06325 µM)	relative viability ([1]; first compound 0.2 µM)	relative viability ([1]; first compound 0.6325 µM)	relative viability ([1]; first compound 2 µM)	relative viability (BGJ398 + Palbociclib; first compound 0.01 µM)	relative viability (BGJ398 + Palbociclib; first compound 0.03162 µM)	relative viability (BGJ398 + Palbociclib; first compound 0.1 µM)	relative viability (BGJ398 + Palbociclib; first compound 0.3162 µM)	relative viability (BGJ398 + Palbociclib; first compound 1 µM)	relative viability (BGJ398 + Pictilisib; first compound 0.01 µM)	relative viability (BGJ398 + Pictilisib; first compound 0.03162 µM)	relative viability (BGJ398 + Pictilisib; first compound 0.1 µM)	relative viability (BGJ398 + Pictilisib; first compound 0.3162 µM)	relative viability (BGJ398 + Pictilisib; first compound 1 µM)	relative viability (BGJ398 + Olaparib; first compound 0.01 µM)	relative viability (BGJ398 + Olaparib; first compound 0.03162 µM)	relative viability (BGJ398 + Olaparib; first compound 0.1 µM)	relative viability (BGJ398 + Olaparib; first compound 0.3162 µM)	relative viability (BGJ398 + Olaparib; first compound 1 µM)
LXF-289	0.529	0.632	0.574	0.552	0.637	0.584	0.549	0.564	0.531	0.552	0.773	0.707	0.682	0.685	0.573	1.01	0.973	1.17	0.919	1.07
NCI-H23	0.513	0.547	0.577	0.509	0.349	0.471	0.601	0.591	0.471	0.475	0.545	0.487	0.477	0.461	0.411	0.333	0.297	0.303	0.371	0.268
NCI-H322M	0.553	0.491	0.477	0.454	0.455	0.493	0.43	0.472	0.491	0.521	0.511	0.415	0.508	0.432	0.515	0.801	0.73	0.761	0.758	0.815
NCI-H358	0.147	0.135	0.128	0.136	0.114	0.139	0.145	0.133	0.13	0.145	0.305	0.403	0.358	0.315	0.332	0.744	0.622	0.619	0.698	0.584
NCI-H441	0.195	0.271	0.24	0.193	0.112		0.186	0.213	0.25	0.183	0.416	0.496	0.558	0.54	0.487		0.619	0.483	0.555	0.536
NCI-H460	0.168	0.107	0.176	0.2	0.122	0.209	0.169	0.118	0.206	0.0801	0.343	0.435	0.393	0.408	0.343	0.39	0.42	0.428	0.414	0.381
NCI-H520	0.211	0.246	0.251	0.181	0.201	0.216	0.19	0.147	0.142	0.161	0.239	0.257	0.209	0.169	0.194	0.265	0.355	0.314	0.202	0.238
NCI-H647	0.314	0.488	0.41	0.363	0.342	0.388	0.375	0.517	0.395	0.413	0.406	0.511	0.38	0.401	0.29	0.51	0.643	0.694	0.521	0.603
NCI-H650	0.346	0.336	0.36	0.344	0.275	0.313	0.375	0.321	0.379	0.315	0.87	0.943	0.867	0.858	0.868	0.358	0.413	0.377	0.375	0.365
NCI-H661	0.397	0.453	0.402	0.434	0.436	0.422	0.406	0.384	0.4	0.398	0.361	0.46	0.388	0.382	0.348	0.7	0.737	0.822	0.736	0.727
NCI-H727	0.549	0.683	0.637	0.649	0.556	0.806	0.651	0.647	0.686	0.691	0.455	0.504	0.176	0.316	0.293	0.707	0.629	0.717	0.653	0.641
NCI-H838	0.217	0.25	0.233	0.179	0.17	0.203	0.203	0.217	0.22	0.195	0.436	0.393	0.417	0.338	0.277	0.731	0.754	0.749	0.741	0.667
NCI-H1355	0.359	0.419	0.401	0.359	0.358	0.417	0.402	0.376	0.389	0.386	0.396	0.477	0.5	0.496	0.271	0.714	0.769	0.736	0.729	0.7
NCI-H1395	0.621	0.58	0.642	0.622	0.594	0.603	0.587	0.464	0.458	0.481	0.664	0.674	0.568	0.357	0.364	0.441	0.426	0.434	0.428	0.409
NCI-H1437	0.306	0.297	0.328	0.305	0.277	0.383	0.309	0.323	0.337	0.278	0.375	0.514	0.439	0.494	0.561	0.687	0.629	0.587	0.607	0.666
NCI-H1650	0.218	0.43	0.37	0.347	0.343	0.298	0.375	0.28	0.182	0.249	0.497	0.394	0.416	0.153	0.316	0.81	0.838	0.786	0.826	0.811
